Experimental data published in patent US5183821A, “Method for treating leukemias using N-(2-dimethylaminoethyl)-3-amino-1,8-naphthalimide for treating leukemias and solid tumors” (priority 1991, dated 1993).
“And” between values parts separate entries of the source, which are not always exact repeats. Identical values can stand only once. “Also recorded” adds a separate entry of the source.

What was measured:
[1] = system: L-1210 Lymphoid Leukemia; assay: NCI screen, L-1210 Lymphoid Leukemia, intraperitoneal (summary); assay type: in vivo, Mouse; details: for dosage range over which activity was observed: i.p. L1210, ILS≥25%; for Table II evaluation: full wrapped cell: Activity substantially greater than the minimal
Description: (§1) The activity of the compound has been evaluated by experiments carried out under the auspices of the Division of Cancer Treatment, National Cancer Institute, employing techniques considered to be reliable indicators of chemotherapeutic utility in the treatment of forms of cancer in human patients. The details of the methodology employed in the reported experiments may be determined with reference to established NCI screening methods.
(§2) In the experiments conducted by the NCI, evaluation of activity is made on the basis of appropriate parameters, such as median survival time (MST) or change in average tumor diameter (CATD)in ocular micrometer units (OMU).

[2] = system: MX-1 mammary tumor xenograft; assay: NCI screen, MX-1 breast (mammary) xenograft, renal capsule (summary); assay type: in vivo, human tumor xenograft in athymic mice; details: for Antitumor activity in words: MX-1 mammary xenograft
Description: as §1, §2

[3] = system: canine whole blood; assay: Hemolytic potential testing, canine whole blood; details: 50 mg/ml
Experimental: Therefore, a concentration of 12.5 mg/ml was used in the dog studies.

[4] = system: L-1210 Lymphoid leukemia; assay: Experiment 7: L-1210 i.p., 10^5 cells, acid diluted with saline, male; assay type: in vivo, Mouse CD2 F1 (CDF1)
Description: Host: Mouse CD2 F1 (CDF1)
Tumor: L-1210 Lymphoid leukemia
Inoculum Site: Intraperitoneal
Vehicle: Acid diluted with saline
Treatment schedule (relative to tumor inoculation day): daily on days 1-9
Day of evaluation (relative to tumor inoculation day): 30
Parameter: Median survival time (MST) in days
NCI minimal activity criteria: Percent T/C≥125
Percent T/C: Ratio of test (T) evaluation to control (C) evaluation expressed as a percentage

[5] = Single dose (X1) mouse range-finding and lethality study; assay type: in vivo, CD2 F1 mice; details: mouse, in vivo, iv
Experimental: (§3) A preclinical toxicology study of benzisoquinolinedione (NSC-308847) was done at Springborn Institute for Bioresearch, Inc. using CD2 F1 mice, Fischer 344 rats and beagle dogs. Animals were injected intravenously on a single dose (X1) or five daily dose (X5) regimen. Bulk drug was titrated with 0.5N HCl to form a salt solution of benzisoquinolinedione at a pH of 5.0-6.5. Sterile 0.9% saline was used for diluting the dosing solutions and was used for the vehicle control animals.
(§4) All mortality and toxic signs occurred on day 1 in both the X1 range-finding and lethality studies.
(§5) Defined Doses for the Single Dose Mouse Lethality

[6] = system: CD2 F1 mice; assay: as above; assay type: in vivo
Experimental: as §3, §4, §5

[7] = system: beagle dogs; assay: Single dose dog toxicity study; assay type: in vivo; details: for Mortality / lethality: single; for toxicity summary, dogs: single dose i.v.
Experimental: (§6) Preclinical toxicity studies of BIDA were completed in CD2F1 Mice, Fischer 344 rats and beagle dogs (4). The animals were injected IV with a single bolus or daily for five days.
as §3
The following summarizes the major organ toxicities resulting from IV administration of benzisoquinolinedione to dogs.

[8] = system: Fischer 344 rats; assay: Five daily dose rat toxicity study; assay type: in vivo; details: for toxicity summary, rats: five daily doses i.v. (X5)
Experimental: as §6, §3
The following summarizes the major organ toxicities resulting from IV administration of benzisoquinolinedione to rats.

[9] = 18.4 mg/kg, three dogs, days 2, 3 and/or 4
[10] = listed as benzisoquinolinedione
[11] = 12.0 mg/kg/day, listed as benzisoquinolinedione
[12] = 24.0 mg/kg/day, females, day 8-9
[13] = 24.0 mg/kg/day, listed as benzisoquinolinedione

CN(C)CCN1C(=O)c2cccc3cc(N)cc(c23)C1=O [Example 9, 1H-Benz[de]isoquinoline-1,3(2H)-dione, 5-amino-2-[2-(dimethylamino)ethyl]]
dosage range over which activity was observed ([1]; listed as BIDA): two-fold dosing range
dosage range over which activity was observed ([1]; listed as the compound): two-fold dosage range
mean optimal increased life span (ILS) ([1]; ip, 16 mg/kg): 96%
optimal increased life spans (ILS) ([1]; ip, 16 mg/kg): 75-117%
Table II evaluation ([1]; mean survival time, 12 tests): Activity
Table II evaluation ([1]; median survival time, 21 tests): Activity
activity by other routes ([1]; p.o. or I.V.): is retained when given p.o. or I.V.
ILS ([1]; solution in 0.1 N HCl diluted with saline): 117%
Antitumor activity in words ([2]; listed as BIDA): No activity was seen
Antitumor activity in words ([2]; listed as the compound): not active
Table II evaluation ([2]; change in average tumor diameter, 4 tests, full wrapped cell: Activity not confirmed): Activity not
hemolysis ([3]; 1:1 drug to blood): hemolysis
hemolysis ([3]; 1:2): Slight hemolysis
hemolysis ([3]; 1:4): none
Median survival time (MST) ([4]; 1.00 mg/kg i.p.): 10.4 days
Percent T/C ([4]; 1.00 mg/kg i.p.): 99%
Median survival time (MST) ([4]; 2.00 mg/kg i.p.): 10.2 days
Percent T/C ([4]; 2.00 mg/kg i.p.): 97%
Median survival time (MST) ([4]; 4.00 mg/kg i.p.): 10.4 days
Percent T/C ([4]; 4.00 mg/kg i.p.): 99%
Median survival time (MST) ([4]; 8.00 mg/kg i.p.): 12.4 days
Percent T/C ([4]; 8.00 mg/kg i.p.): 118%
Median survival time (MST) ([4]; 16.00 mg/kg i.p.): 11.8 days
Percent T/C ([4]; 16.00 mg/kg i.p.): 112%
Median survival time (MST) ([4]; 32.00 mg/kg i.p.): 8.0 days
LD50 ([5]; combined sexes): 69.1 mg/kg
LD50 ([5]; female): 71.4 mg/kg
LD50 ([5]; male): 67.1 mg/kg
body weight, mice ([6]; X1): Only slight weight loss
time of deaths, mice ([6]; X1): within a few minutes after dosing
toxic signs, mice ([6]; X1, listed as benzisoquinolinedione): labored breathing, struggling and exophthalmus; also recorded: loss of locomotor ability, decreased activity and rough hair coats; also recorded: All surviving animals were normal within a few hours
LD50 ([6]; combined sexes): 207.3 mg/m^2
Slope (lethality) ([6]; combined sexes): 23.1
LD10 ([6]; female): 62.2 mg/kg
LD50 ([6]; female): 214.2 mg/m^2
Slope (lethality) ([6]; female): 21.2
LD50 ([6]; male): 201.3 mg/m^2
Slope (lethality) ([6]; male): 26.0
gross or microscopic lesions ([7]; 0.92 mg/kg): No drug-related gross or microscopic lesions were found
Mortality / lethality ([7]; 0.92 mg/kg (1/10MELD10)): 0/4
SGPT ([7]; 0.92 mg/kg, days 2 and 4): 27-40 I.U./L
BUN ([7]; 0.92 mg/kg, one dog, day 4): 26 mg/dL
Creatinine ([7]; 0.92 mg/kg, one dog, day 4): 1.29 mg/dL
gross or microscopic lesions ([7]; 9.2 mg/kg): No drug-related gross or microscopic lesions were found
Mortality / lethality ([7]; 9.2 mg/kg (MELD10)): 0/4
Creatinine ([7]; 9.2 mg/kg, day 4): 1.31 mg/dL
BUN ([7]; 9.2 mg/kg, one dog, days 2 and 4): 22 to 23 mg/dL
SGPT ([7]; 9.2 mg/kg, three dogs, days 2 and/or 4): 32-43 I.U./L
Nervous system signs ([7]; 18.4 mg/kg): vocalizations, struggling against restraint, excessive salivation, hyperextension of all limbs and/or labored breathing
Mortality / lethality ([7]; 18.4 mg/kg (2XMELD10), listed as BIDA): Neither the single injection of 2×MELD10 or the daily×5 injection of the 3×MELD10 caused lethality
Mortality / lethality ([7]; 18.4 mg/kg (2XMELD10), listed as benzisoquinolinedione): no deaths and 0/4
BUN ([7]; 18.4 mg/kg, all dogs, day 2): 23 to 32 mg/dL
leukopenia (leukocyte count) ([7]; 18.4 mg/kg, days 3, 8 or 4): 3.8-5.4 ×10^3 /cmm
gross or microscopic lesions ([7]; 18.4 mg/kg, listed as benzisoquinolinedione): No gross or microscopic lesions were seen; also recorded: No drug-related gross or microscopic lesions were found
SGOT [7, 9]: 43-70 I.U./L
SGPT [7, 9]: 40-57 I.U./L
BUN ([7]; 18.4 mg/kg, two long-term dogs, days 22 and 29 or 28): 23 to 29 mg/dL
toxicity summary, dogs ([7]; listed as BIDA): Hematopoletic, renal and hepatic toxicity; also recorded: Signs indicating pain and/or neurotoxicity
toxicity summary, dogs [7, 10]: reversible toxicity to the hematopoietic system, kidney and liver; also recorded: Signs indicative of pain and/or neurotoxicity; also recorded: No drug-related gross or microscopic lesions
gross or microscopic lesions ([8]; 6.0 mg/kg): No drug-related gross or microscopic lesions were found
Mortality / lethality ([8]; 6.0 mg/kg/day (1/2MELD10)): 0/20
Hematologic findings ([8]; 6.0 mg/kg, listed as benzisoquinolinedione): Female rats showed moderate increases in reticulocytes on days 15 and 22, followed by a moderate decrease on day 36; also recorded: The males were not affected
Mortality / lethality ([8]; 12.0 mg/kg/day (MELD10)): 0/20
Reproductive findings ([8]; 12.0 mg/kg/day, day 36, listed as benzisoquinolinedione): slight decrease in testicular weight on day 36; also recorded: moderate testicular atrophy in all males
mild to moderate diffuse bone marrow atrophy, incidence ([8]; 12.0 mg/kg/day, females, day 8): 4/5
Hematologic findings [8, 11]: Slight decreases in hemoglobin, hematocrit and red blood cells were seen in female rats on day 8; also recorded: moderate reticulocytopenia; also recorded: male rats had a mild increase in reticulocytes on day 22; also recorded: Females had slight to mild leukocytosis on days 15 and 22; also recorded: The males had a moderate increase in WBC only on day 15; also recorded: No microscopic lesions were seen on day 36 in either sex
Integumentary findings [8, 11]: dry yellowish-white scaly tails; also recorded: microscopic evaluation did not show any tail lesions
mild thymic atrophy, incidence ([8]; 12.0 mg/kg/day, males, day 8): 1/5
mild to moderate diffuse bone marrow atrophy, incidence ([8]; 12.0 mg/kg/day, males, day 8): 4/5
Mortality / lethality ([8]; 24.0 mg/kg/day (2XMELD10), listed as benzisoquinolinedione): 5/20 and Two females were found dead and three females were sacrificed
marked testicular atrophy, incidence ([8]; 24.0 mg/kg/day, day 36): 2/5
moderate testicular atrophy, incidence ([8]; 24.0 mg/kg/day, day 36): 2/5
severe testicular atrophy, incidence ([8]; 24.0 mg/kg/day, day 36): 1/5
moderate to marked spleen atrophy, incidence ([8]; 24.0 mg/kg/day, females): 3/10
marked jejunal epithelial degeneration, incidence ([8]; 24.0 mg/kg/day, females, day 8): 5/10
marked necrosis of mesenteric lymph node, incidence ([8]; 24.0 mg/kg/day, females, day 8): 1/10
mild atrophy of mesenteric lymph node, incidence ([8]; 24.0 mg/kg/day, females, day 8): 1/10
mild to marked duodenal epithelial degeneration, incidence ([8]; 24.0 mg/kg/day, females, day 8): 5/10
mild to marked duodenal epithelial necrosis, incidence ([8]; 24.0 mg/kg/day, females, day 8): 7/10
mild to marked ileal epithelial necrosis, incidence ([8]; 24.0 mg/kg/day, females, day 8): 10/10
mild to marked jejunal epithelial necrosis, incidence ([8]; 24.0 mg/kg/day, females, day 8): 9/10
mild to severe colonic epithelial necrosis, incidence ([8]; 24.0 mg/kg/day, females, day 8): 3/10
moderate to marked ileal epithelial degeneration, incidence ([8]; 24.0 mg/kg/day, females, day 8): 5/10
marked to severe bone marrow atrophy, incidence [8, 12]: 10/10
marked to severe thymic atrophy, incidence [8, 12]: 9/10
Hepatic findings ([8]; 24.0 mg/kg/day, females, day 9): multifocal liver necrosis in two females
Gastrointestinal findings [8, 13]: Diarrhea was observed on days 6 to 10 in males and days 6 to termination (day 8 or 9) in females; also recorded: mild to marked epithelial degeneration and necrosis of the duodenum, jejunum and ileum of both sexes; also recorded: No lesions were seen in long-term males; also recorded: emaciation (days 7-12) and dehydration (days 9-12)
Hematologic findings [8, 13]: Mild increases in hemoglobin, hematocrit and red blood cells were seen in male rats on day 8; also recorded: moderate to slight decreases in these parameters on days 15 and 22; also recorded: No reticulocytes were observable in either sex on day 8; also recorded: marked decreases being seen on day 8, followed by moderate to marked increases above baselines on days 15 and 22; also recorded: mild thrombocytosis
Reproductive findings [8, 13]: All five males showed decreased testicular weights on day 36; also recorded: No reproductive lesions were seen on day 8 in males or females
marked jejunal epithelial degeneration, incidence ([8]; 24.0 mg/kg/day, males, day 8): 4/5
marked to severe bone marrow atrophy, incidence ([8]; 24.0 mg/kg/day, males, day 8): 5/5
marked to severe thymic atrophy, incidence ([8]; 24.0 mg/kg/day, males, day 8): 3/5
mild necrosis of the hair bulb, incidence ([8]; 24.0 mg/kg/day, males, day 8): 2/5
mild to marked duodenal epithelial degeneration, incidence ([8]; 24.0 mg/kg/day, males, day 8): 4/5
mild to marked duodenal epithelial necrosis, incidence ([8]; 24.0 mg/kg/day, males, day 8): 5/5
mild to marked ileal epithelial necrosis, incidence ([8]; 24.0 mg/kg/day, males, day 8): 4/5
mild to marked jejunal epithelial necrosis, incidence ([8]; 24.0 mg/kg/day, males, day 8): 4/5
moderate to marked ileal epithelial degeneration, incidence ([8]; 24.0 mg/kg/day, males, day 8): 4/5
depression of group mean body weights ([8]; 24.0 mg/kg/day, males, day 26 as printed): 31
body weight loss at termination ([8]; 24.0 mg/kg/day, males, day 36): 31
moderate bone marrow atrophy, incidence ([8]; 24.0 mg/kg/day, males, day 36): 1/5
moderate to marked hyperkeratosis, incidence ([8]; 24.0 mg/kg/day, males, day 36): 4/5
moderate to severe thymic atrophy, incidence ([8]; 24.0 mg/kg/day, males, day 36): 2/5
depression of group mean body weights ([8]; 24.0 mg/kg/day, males, days 15 and 22): 26
Tail (integumentary) findings ([8]; 24.0 mg/kg/day, males, listed as benzisoquinolinedione): the tail skin was friable and sloughing in males; also recorded: severe tail necrosis in all five males
Deaths, females ([8]; 2XMELD10, X5): one-half of the females
toxicity summary, rats ([8]; listed as BIDA): reproductive system toxicity was seen at doses of MELD 10 and higher
toxicity summary, rats [8, 10]: toxic on both schedules (X1, X5) to the hematopoietic system and to the male reproductive system; also recorded: gastrointestinal, tail lesions and possibly hepatotoxicity; also recorded: Toxicity to the testes and tails was delayed and had not reversed by day 36
